Measurements published in patent US7018979B1, “Method for using potassium channel agonists for delivering a medicant to an abnormal brain region and/or a malignant tumor” (Cedars-Sinai Medical Center, priority 2000, dated 2006).
Entries after “also recorded” stand apart in the source; their conditions may differ. Counter-ions that a name gives are not always drawn.

How the values were obtained:
[1] = cited from earlier work
[2] = Arterial blood pressure monitored during intracarotid infusion; conditions: higher doses, 100 and 110 μg/kg/min

For `CC(N/C(=N\C#N)Nc1ccncc1)C(C)(C)C` (racemic) [pinacidil, (+/−)-N-cyano-N′-4-pyridinyl-N″-(1,2,2-trimethylpropyl)-guanidine], the solubility in water [1] is listed as “insoluble in water; also recorded: not easily dissolved in water”.
In the case of `Nc1cc(N2CCCCC2)nc(N)[n+]1OS(=O)(=O)[O-]` [minoxidil sulfate], the solubility in water [1] is listed as “not easily dissolved in water”.
For `CC1=NS(=O)(=O)c2cc(Cl)ccc2N1` [diazoxide], the solubility in water [1] is listed as “not easily dissolved in water”.
In the case of `O=c1[nH]c2cc(C(F)(F)F)ccc2n1-c1cc(C(F)(F)F)ccc1O` [NS-1619, 1,3-dihydro-1-[2-hydroxy-5-(trifluoromethyl)phenyl]-5-(trifluoromethyl)-2H-benzimidazol-2-one], the solubility in water [1] is given as “not easily dissolved in water” and the arterial blood pressure [2] is given as “significant drop”.
